Assay results taken from patent publication US11186606B2, “Compositions and methods of modulating the immune response by activating alpha protein kinase 1” (Shanghai Yao Yuan Biotechnology Co., Ltd., priority 2017, dated 2021).

Legend:
[1] = tested on: phosphatase activity in the serum; assay: Incubation of H1b-ADP with FBS, product analysed by LC-MS; type: in vitro ADME, bovine; settings: 1 mM, pre-mixed with H1b-ADP before incubation with FBS
Description: (§1) FBS contains 110-352 U/ml alkaline phosphatase.

[2] = tested on: bovine alkaline phosphatase; assay: Incubation of H1b-ADP with bovine alkaline phosphatase; type: biochemical
Description: as §1

ALPK1 = assay: IL8 secretion in HEK293 cells (IL8 ELISA) as indicator of ALPK1 activation; settings: added to the FBS-containing medium, HEK293 cells, IL8 secretion
Description: We pre-mixed H1b-ADP with phosphatase inhibitor sodium orthovanadate (Na3VO4) before incubation with FBS.
In these experiments, serial dilutions of the compounds were added to the tissue culture media of HEK293 cells with (FIG. 27B, FIG. 28B, FIG. 29B) or without (FIG. 26, FIG. 27A, FIG. 28A, FIG. 29A) 10% FBS, as indicated in the figures. After 4 hours, the cell supernatant was collected and analyzed for IL8 concentration using IL8 ELISA (BD) as an indicator of ALPK1 activation.

H1b-ADP hydrolysis [1]: effectively inhibited H1b-ADP hydrolysis
phosphatase activity (H1b-ADP hydrolysis) [2]: blocked by increasing amount of Na3VO4
SMILES: [Na+].[Na+].[Na+].[O]=[V]([O-])([O-])[O-] [Na3VO4, sodium orthovanadate]
restoration of H1b-ADP's activity in the cell based assay (ALPK1): could restore H1b-ADP's activity
